How the values were obtained:
786-O = experiment: Cell proliferation assay (MTT); format: cell-based, human; conditions: for IC50: Homo sapiens, 786-0, MTT, 72 h incubation; for Selective Index (SI) 786-O: relative to Detroit 551 normal fibroblasts
Experimental: (§1) At the end of the incubation, cell viability was determined by 3-(4,5-dimethylthiazol-2-yl)-2,5-diphenyl tetrazolium bromide (MTT). The MTT formazan crystals were dissolved by DMSO, and the absorbance at 570 nm using a microplate spectrophotometer (Thermo Fisher Scientific, Waltham, MA, USA).

HCT116 = experiment: Cell proliferation assay (MTT); format: cell-based, human; conditions: for IC50: Homo sapiens, HCT-116, MTT, 72 h incubation; for Selective Index (SI) HCT116: relative to Detroit 551 normal fibroblasts
Experimental: as §1

NCI-H460 = experiment: Cell proliferation assay (MTT); format: cell-based, human; conditions: for IC50: Homo sapiens, NCI-H460, MTT, 72 h incubation; for Selective Index (SI) NCI-H460: relative to Detroit 551 normal fibroblasts
Experimental: as §1

Detroit 551 = experiment: Cell proliferation assay (MTT) on normal fibroblasts; format: cell-based; conditions: Homo sapiens, 72 h incubation, normal fibroblast cells
Experimental: The HCT116 (human colon cancer cells, BCRC 60349) and Detroit 551 (human normal fibroblast cells, BCRC 60118) were maintained in DMEM (Gibco, Grand Island, NY, USA) containing 10% FBS (HyClone, Logan, UT, USA). NCI-H460 (BCRC 60373) and 786-O (BCRC 60243) were maintained in RPMI 1640 (Gibco, Grand Island, NY, USA) containing 10% FBS (HyClone, Logan, UT, USA). They were incubated at 37 °C in a 5% CO2 atmosphere.
The cells incubated as above were plated at a density of 2000 cells/well (cancer cells) or 10,000 cells/well (Detroit 551) on a 96-well plate for 24 h; serial dilutions of indicated compounds were added and incubated for additional 72 h. At the end of the incubation, cell viability was determined by 3-(4,5-dimethylthiazol-2-yl)-2,5-diphenyl tetrazolium bromide (MTT). The MTT formazan crystals were dissolved by DMSO, and the absorbance at 570 nm using a microplate spectrophotometer (Thermo Fisher Scientific, Waltham, MA, USA).

PDGFRβ = molecular target: T1, PDGFRβ (Homo sapiens, UniProt P09619); experiment: In vitro kinase assay (HotSpot, 33P); format: biochemical; conditions: ATP 10.0 μM; for inhibition at 0.05 µM: 50 nM compound
T1 construct: purchased Reaction Biology Corporation
Experimental: (§2) Briefly, specific kinase and substrate and required cofactors were prepared in reaction buffer. Test compounds were added into the reaction, after 20 min, a mixture of ATP (Sigma, St. Louis, MO, USA) and ^33P ATP (Perkin Elmer, Waltham, MA, USA) was added to make a final concentration of 10.0 μM. Reactions were stood at room temperature for 120 min, and spot the reactions onto P81 ion exchange filter paper (Whatman Inc., Piscataway, NJ, USA). Unbound phosphate was removed by extensive washing of filters in 0.1% phosphoric acid. Kinase activity data was reported as the percent remaining kinase activity in test compounds compared to solvent control (DMSO).

VEGFR-2 = molecular target: T2, VEGFR-2 (Homo sapiens, UniProt P35968); experiment: In vitro kinase assay (HotSpot, 33P); format: biochemical; conditions: ATP 10.0 μM; for inhibition at 0.05 µM: 50 nM compound
T2 construct: purchased Reaction Biology Corporation
Experimental: as §2

aurora A = molecular target: T3, aurora A (Homo sapiens, UniProt O14965); experiment: In vitro kinase assay (HotSpot, 33P); format: biochemical; conditions: 1.0 μM compound, ATP 10.0 μM
T3 construct: purchased Reaction Biology Corporation
T3 sequence (O14965 1-403): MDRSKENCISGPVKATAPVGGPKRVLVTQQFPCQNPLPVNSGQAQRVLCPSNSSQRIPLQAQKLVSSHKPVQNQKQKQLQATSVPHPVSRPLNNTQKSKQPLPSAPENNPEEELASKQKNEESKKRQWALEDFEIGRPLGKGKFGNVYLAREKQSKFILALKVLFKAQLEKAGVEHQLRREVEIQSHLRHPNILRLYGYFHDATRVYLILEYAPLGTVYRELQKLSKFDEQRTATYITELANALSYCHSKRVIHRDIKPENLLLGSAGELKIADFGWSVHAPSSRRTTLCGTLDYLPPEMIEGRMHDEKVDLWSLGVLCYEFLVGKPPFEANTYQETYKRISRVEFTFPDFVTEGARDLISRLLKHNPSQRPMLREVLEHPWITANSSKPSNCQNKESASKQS
Experimental: as §2, with “[…]. Briefly,” for “Briefly,”

HUVECs = experiment: In vitro VEGF-induced tube formation assay (Kurabo angiogenesis kit); format: cell-based, human; conditions: for IC50: Homo sapiens, HUVEC, 264 h, VEGF 10 ng/mL, 11 days, read-out: IC50 of Tube Area
Experimental: Angiogenesis Kit (Kurabo, Neyagawa, Osaka, Japan) was used in accordance with the manufacturer’s protocols. Briefly, HUVECs and fibroblasts were co-cultured in 24-well plates with basal medium or solvent control medium (basal medium containing 1.0% DMSO) or solvent control medium containing 9, 10, 11, and 12 (0.50 μM, 0.25 μM and 0.10 μM). The medium renewals with or without agent in cultures were conducted every 3 days. After 11 days HUVECs were fixed and stained with anti-CD31 antibody in line with the manufacturer’s protocols. The tube formation area were measured using Angiogenesis Image Analyzer (Kurabo, Neyagawa, Osaka, Japan) with suaramin (70 μM) as positive control.

HCT116 cells = experiment: Cell cycle profile by image cytometry; format: cell-based, human; conditions: 24 h
Experimental: Cell cycle profiles of HCT116 cells were determined with an NC-3000 image cytometer (ChemoMetec, Allerod, Denmark) in accordance with manufacturer’s protocol. Briefly, cells were seeded at 200,000 cells/well on a 6-well plate for 24 h. […] After incubation for 24 h, 100,000 cells were harvested and centrifuged for 5 min at 400 g at room temperature, washed once with PBS […] and resuspended with 50 μL of lysis buffer (ChemoMetec, Allerod, Denmark) containing 10 μg/mL of 2-(4-amidinophenyl)-1H-indole-6-carboxamidine (DAPI, ChemoMetec, Allerod, Denmark). The cells were incubated at 37 °C for 5 min, 50 μL of stabilization buffer (ChemoMetec, Allerod, Denmark) was added to the solution, and the cellular fluorescence was measured with an NC-3000 image cytometer using NC-SlideA8 (ChemoMetec, Allerod, Denmark). The NC-3000 software (ChemoMetec, Allerod, Denmark) was used for image acquisition, image analysis and quantification and data visualization.

[1] = system: Detroit 551, HCT116, NCI-H460 and 786-O cell lines; experiment: Acute cytotoxicity (WST-8, Cell-Counting-Kit-8); format: cell-based, human; conditions: 10 μM, 6 h, WST-8, all tested cell lines
Experimental: Cells were seeded at 5000 cells/well on a 96-well plate for 24 h. The indicated compounds in different concentration (100 μL) were added to cells. Post 6 h, old medium was aspirated, and cells were washed three times with PBS. WST-8 (Dojindo, Rockville, MD, USA) (10 µL) was added to each well, and the absorbance of the plate was recorded at 450 nm on a microplate spectrophotometer (Thermo Fisher Scientific, Waltham, MA, USA).

T2 sequence (P35968 20-1356): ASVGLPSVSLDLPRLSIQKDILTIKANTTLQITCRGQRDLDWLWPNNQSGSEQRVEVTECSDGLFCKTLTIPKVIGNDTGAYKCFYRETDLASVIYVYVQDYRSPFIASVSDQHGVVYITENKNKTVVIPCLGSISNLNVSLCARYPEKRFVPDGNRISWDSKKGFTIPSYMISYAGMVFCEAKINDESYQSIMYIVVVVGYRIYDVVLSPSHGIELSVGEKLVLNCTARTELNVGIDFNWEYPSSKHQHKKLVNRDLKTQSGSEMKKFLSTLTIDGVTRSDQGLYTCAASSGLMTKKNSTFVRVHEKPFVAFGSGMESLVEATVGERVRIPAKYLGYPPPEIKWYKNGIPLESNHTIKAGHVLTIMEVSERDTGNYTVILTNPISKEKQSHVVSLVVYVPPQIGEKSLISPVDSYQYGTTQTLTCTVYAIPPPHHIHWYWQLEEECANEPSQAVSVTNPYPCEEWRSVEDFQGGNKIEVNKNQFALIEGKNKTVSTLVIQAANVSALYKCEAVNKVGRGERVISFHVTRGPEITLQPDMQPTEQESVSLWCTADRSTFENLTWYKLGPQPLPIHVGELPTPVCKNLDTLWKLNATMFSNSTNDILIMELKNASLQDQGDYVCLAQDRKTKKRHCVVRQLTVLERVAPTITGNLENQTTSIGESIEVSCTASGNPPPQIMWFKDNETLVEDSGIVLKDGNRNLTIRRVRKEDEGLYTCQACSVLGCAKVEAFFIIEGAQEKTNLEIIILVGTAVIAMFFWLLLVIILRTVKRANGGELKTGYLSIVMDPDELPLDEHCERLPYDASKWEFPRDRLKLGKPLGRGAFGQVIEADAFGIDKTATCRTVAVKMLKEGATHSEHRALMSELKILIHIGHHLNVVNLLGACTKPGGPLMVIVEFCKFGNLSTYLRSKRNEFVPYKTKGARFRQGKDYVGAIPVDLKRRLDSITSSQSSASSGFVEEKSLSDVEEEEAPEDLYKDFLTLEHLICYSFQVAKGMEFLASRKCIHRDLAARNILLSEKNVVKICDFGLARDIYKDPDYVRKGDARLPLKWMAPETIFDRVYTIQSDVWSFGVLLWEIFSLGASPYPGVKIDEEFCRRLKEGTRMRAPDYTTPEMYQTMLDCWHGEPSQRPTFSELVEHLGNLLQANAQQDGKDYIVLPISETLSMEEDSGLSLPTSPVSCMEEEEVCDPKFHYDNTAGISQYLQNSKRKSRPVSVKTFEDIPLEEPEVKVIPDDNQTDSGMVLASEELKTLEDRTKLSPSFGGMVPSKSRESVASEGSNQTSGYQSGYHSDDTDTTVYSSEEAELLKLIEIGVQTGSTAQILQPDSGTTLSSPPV
T1 sequence (P09619 33-1106): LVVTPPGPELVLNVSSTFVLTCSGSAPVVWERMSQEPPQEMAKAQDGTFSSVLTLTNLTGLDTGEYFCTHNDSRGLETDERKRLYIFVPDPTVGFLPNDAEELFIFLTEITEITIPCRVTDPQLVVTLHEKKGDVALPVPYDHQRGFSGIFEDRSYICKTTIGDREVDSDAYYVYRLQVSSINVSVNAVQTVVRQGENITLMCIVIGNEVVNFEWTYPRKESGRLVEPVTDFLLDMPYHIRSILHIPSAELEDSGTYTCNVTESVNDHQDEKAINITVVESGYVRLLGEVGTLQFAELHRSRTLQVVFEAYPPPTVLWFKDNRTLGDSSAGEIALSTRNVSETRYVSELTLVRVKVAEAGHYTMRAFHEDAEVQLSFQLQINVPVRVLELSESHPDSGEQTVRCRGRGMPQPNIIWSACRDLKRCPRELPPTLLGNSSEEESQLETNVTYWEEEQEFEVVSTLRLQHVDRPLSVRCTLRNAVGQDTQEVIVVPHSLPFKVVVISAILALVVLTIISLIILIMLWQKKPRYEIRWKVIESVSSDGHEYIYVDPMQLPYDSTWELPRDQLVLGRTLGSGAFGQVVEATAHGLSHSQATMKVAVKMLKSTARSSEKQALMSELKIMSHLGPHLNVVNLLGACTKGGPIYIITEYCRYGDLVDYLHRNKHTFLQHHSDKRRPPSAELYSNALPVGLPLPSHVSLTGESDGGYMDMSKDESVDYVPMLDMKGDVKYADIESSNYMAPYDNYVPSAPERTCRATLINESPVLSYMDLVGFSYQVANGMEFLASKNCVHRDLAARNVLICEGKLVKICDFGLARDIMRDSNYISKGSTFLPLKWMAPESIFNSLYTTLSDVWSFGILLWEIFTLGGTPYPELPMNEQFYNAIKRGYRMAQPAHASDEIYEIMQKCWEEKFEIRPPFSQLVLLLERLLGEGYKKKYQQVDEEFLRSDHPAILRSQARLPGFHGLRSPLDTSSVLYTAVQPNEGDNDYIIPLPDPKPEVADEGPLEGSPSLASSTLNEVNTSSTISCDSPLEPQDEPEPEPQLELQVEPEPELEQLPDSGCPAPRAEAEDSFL

Row | Compound | IC50 (786-O) [nM] | IC50 (HCT116) [nM] | IC50 (NCI-H460) [nM] | inhibition at 0.05 µM (PDGFRβ) [%] | IC50 (PDGFRβ) [nM] | inhibition at 0.05 µM (VEGFR-2) [%] | IC50 (VEGFR-2) [nM] | inhibition at 1 µM (aurora A) [%] | melting point [°C] | Selective Index (SI) HCT116 (HCT116) | IC50 (Detroit 551) [nM] | IC50 (HUVECs) [nM] | cell cycle profile effect (HCT116 cells; 5.0 μM) | Selective Index (SI) 786-O (786-O) | Selective Index (SI) NCI-H460 (NCI-H460) | tube formation IC50, fold stronger than sunitinib (HUVECs; vs sunitinib) | cell cycle profile effect (HCT116 cells; 1.0 μM) | anti-proliferation potency against HCT116, fold stronger than 8 (HCT116; vs 8 (C(5)-H)) [fold] | anti-proliferation potency against HCT116, fold stronger than sunitinib (HCT116; vs sunitinib) | acute cellular toxicity [1]
1 | CCN(CC)CCN1Cc2[nH]c(/C=C3\C(=O)Nc4ccccc43)c(C)c2C1=O [Compound 8, (Z)-3-((5-(2-(Diethylamino)ethyl)-3-methyl-4-oxo-1,4,5,6-tetrahydropyrrolo[3,4-b]pyrrol-2-yl)methylene)indolin-2-one] | > 10000 | 4250 ± 1880 | > 10000 | 64 | 22.4 | 56 | 30.2 | 95.9 | 167 to 168 | >2.35 | > 10000 | 310 ± 15 | increase phase of polyploid |  |  |  |  |  |  | 
2 | CCN(CC)CCN1Cc2[nH]c(/C=C3\C(=O)Nc4ccc(F)cc43)c(C)c2C1=O [Compound 9, (Z)-3-((5-(2-(Diethylamino)ethyl)-3-methyl-4-oxo-1,4,5,6-tetrahydropyrrolo[3,4-b]pyrrol-2-yl)methylene)-5-fluoroindolin-2-one] | > 10000 | 2940 ± 660 | > 10000 | 36 | 97.5 | 35 | 111 | 93.1 | 245 to 246 | >3.4 | > 10000 | 367 ± 16 | G0/G1 cell cycle arrest |  |  |  |  |  |  | 
3 | CCN(CC)CCN1Cc2[nH]c(/C=C3\C(=O)Nc4ccc(Br)cc43)c(C)c2C1=O [Compound 11, (Z)-5-Bromo-3-((5-(2-(diethylamino)ethyl)-3-methyl-4-oxo-1,4,5,6-tetrahydropyrrolo[3,4-b]pyrrol-2-yl)methylene)indolin-2-one] | 7060 ± 300 | 1050 ± 180 | 6570 ± 1640 | 68 | 16.1 | 64 | 24.7 | 93.1 | 266 to 267 | >9.52 | > 10000 | 179 ± 29 |  | >1.42 | >1.52 | approximately 2 fold | increase phase of polyploid |  |  | 
4 | CCN(CC)CCN1Cc2[nH]c(/C=C3\C(=O)Nc4ccc(I)cc43)c(C)c2C1=O [Compound 12, (Z)-3-((5-(2-(Diethylamino)ethyl)-3-methyl-4-oxo-1,4,5,6-tetrahydropyrrolo[3,4-b]pyrrol-2-yl)methylene)-5-iodoindolin-2-one] | 7760 ± 290 | 420 ± 160 | 2950 ± 830 | 62 | 29.3 | 58 | 35.1 | 92.9 | 267 to 268 | 21.93 | 9210 ± 1610 | 313 ± 37 |  | 1.19 | 3.12 |  | G0/G1 cell cycle arrest | ~10 | approximately 8 fold | 

Now from value to molecule, other results behind:

Row | IC50 (786-O) [nM] | IC50 (HCT116) [nM] | IC50 (NCI-H460) [nM] | inhibition at 0.05 µM (PDGFRβ) [%] | IC50 (PDGFRβ) [nM] | inhibition at 0.05 µM (VEGFR-2) [%] | IC50 (VEGFR-2) [nM] | inhibition at 1 µM (aurora A) [%] | melting point [°C] | Compound | Selective Index (SI) HCT116 (HCT116) | IC50 (Detroit 551) [nM] | IC50 (HUVECs) [nM] | cell cycle profile effect (HCT116 cells; 5.0 μM) | Selective Index (SI) 786-O (786-O) | Selective Index (SI) NCI-H460 (NCI-H460) | tube formation IC50, fold stronger than sunitinib (HUVECs; vs sunitinib) | cell cycle profile effect (HCT116 cells; 1.0 μM) | anti-proliferation potency against HCT116, fold stronger than 8 (HCT116; vs 8 (C(5)-H)) [fold] | anti-proliferation potency against HCT116, fold stronger than sunitinib (HCT116; vs sunitinib) | acute cellular toxicity [1]
5 | 7300 ± 1200 | 3090 ± 700 | > 10000 | 64 | 24.9 | 58 | 35 | 93.7 | 252 to 253 | CCN(CC)CCN1Cc2[nH]c(/C=C3\C(=O)Nc4ccc(Cl)cc43)c(C)c2C1=O [Compound 10, (Z)-5-Chloro-3-((5-(2-(diethylamino)ethyl)-3-methyl-4-oxo-1,4,5,6-tetrahydropyrrolo[3,4-b]pyrrol-2-yl)methylene)indolin-2-one] | >3.23 | > 10000 | 299 ± 70 | G0/G1 cell cycle arrest | >1.37 |  |  |  |  |  | 
6 | 6270 ± 670 | 3420 ± 570 | 6230 ± 570 | 44 |  |  |  |  |  | CCN(CC)CCNC(=O)c1c(C)[nH]c(/C=C2\C(=O)Nc3ccc(F)cc32)c1C [Sunitinib, sunitinib, reference compound] |  |  | 387 ± 16 | G0/G1 cell cycle arrest |  |  |  |  |  |  | nearly free from acute cellular toxicity
